Data from patent publication US20100120763A1, “IMIDAZO[5,1-C][1,2,4]BENZOTRIAZINE DERIVATIVES AS INHIBITORS OF PHOSPHODIESTERASES” (priority 2008, published 2010).

Experiments:
[1] = target: T1, PDE10A (Homo sapiens, UniProt Q9Y233); assay: Inhibition of recombinant PDE10A (baculovirus/SF21 system), [3H]-cAMP SPA; type: biochemical; settings: recombinant PDE10A1, cytosolic; 0.1 μM [3H]-cAMP, 37° C., 30 minutes; read-out: PDE10A IC50
T1 construct: made in house; host or cells: SF21 insect cells (baculovirus)
T1 sequence (Q9Y233 1-779 isoform Q9Y233-1): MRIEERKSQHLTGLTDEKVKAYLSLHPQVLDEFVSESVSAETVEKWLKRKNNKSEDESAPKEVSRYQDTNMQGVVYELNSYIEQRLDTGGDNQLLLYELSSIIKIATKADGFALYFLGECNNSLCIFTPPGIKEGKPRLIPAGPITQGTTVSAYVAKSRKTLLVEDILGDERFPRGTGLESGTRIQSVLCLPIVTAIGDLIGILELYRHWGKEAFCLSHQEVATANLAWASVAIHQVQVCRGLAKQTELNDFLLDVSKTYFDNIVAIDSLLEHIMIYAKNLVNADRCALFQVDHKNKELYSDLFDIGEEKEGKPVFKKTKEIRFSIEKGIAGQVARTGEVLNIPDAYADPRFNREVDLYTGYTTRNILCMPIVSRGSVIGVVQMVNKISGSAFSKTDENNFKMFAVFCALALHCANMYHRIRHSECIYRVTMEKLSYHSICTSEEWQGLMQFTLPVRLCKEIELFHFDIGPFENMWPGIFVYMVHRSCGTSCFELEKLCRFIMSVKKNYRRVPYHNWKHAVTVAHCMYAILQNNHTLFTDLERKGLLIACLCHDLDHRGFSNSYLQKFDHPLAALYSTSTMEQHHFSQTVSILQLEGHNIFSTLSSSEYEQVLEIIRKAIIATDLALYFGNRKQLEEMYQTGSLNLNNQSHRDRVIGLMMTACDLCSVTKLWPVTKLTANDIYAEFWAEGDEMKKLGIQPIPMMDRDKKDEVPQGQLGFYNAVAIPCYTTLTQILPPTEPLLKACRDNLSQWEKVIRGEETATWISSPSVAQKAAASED

[2] = target: T2, PDE2A (Homo sapiens, UniProt O00408); assay: Inhibition of recombinant PDE2A (expressed in baculovirus/SF21-cells), [3H]-cAMP SPA; type: biochemical
T2 construct: made in house; host or cells: SF21 insect cells (baculovirus)
T2 sequence (O00408 whole entry): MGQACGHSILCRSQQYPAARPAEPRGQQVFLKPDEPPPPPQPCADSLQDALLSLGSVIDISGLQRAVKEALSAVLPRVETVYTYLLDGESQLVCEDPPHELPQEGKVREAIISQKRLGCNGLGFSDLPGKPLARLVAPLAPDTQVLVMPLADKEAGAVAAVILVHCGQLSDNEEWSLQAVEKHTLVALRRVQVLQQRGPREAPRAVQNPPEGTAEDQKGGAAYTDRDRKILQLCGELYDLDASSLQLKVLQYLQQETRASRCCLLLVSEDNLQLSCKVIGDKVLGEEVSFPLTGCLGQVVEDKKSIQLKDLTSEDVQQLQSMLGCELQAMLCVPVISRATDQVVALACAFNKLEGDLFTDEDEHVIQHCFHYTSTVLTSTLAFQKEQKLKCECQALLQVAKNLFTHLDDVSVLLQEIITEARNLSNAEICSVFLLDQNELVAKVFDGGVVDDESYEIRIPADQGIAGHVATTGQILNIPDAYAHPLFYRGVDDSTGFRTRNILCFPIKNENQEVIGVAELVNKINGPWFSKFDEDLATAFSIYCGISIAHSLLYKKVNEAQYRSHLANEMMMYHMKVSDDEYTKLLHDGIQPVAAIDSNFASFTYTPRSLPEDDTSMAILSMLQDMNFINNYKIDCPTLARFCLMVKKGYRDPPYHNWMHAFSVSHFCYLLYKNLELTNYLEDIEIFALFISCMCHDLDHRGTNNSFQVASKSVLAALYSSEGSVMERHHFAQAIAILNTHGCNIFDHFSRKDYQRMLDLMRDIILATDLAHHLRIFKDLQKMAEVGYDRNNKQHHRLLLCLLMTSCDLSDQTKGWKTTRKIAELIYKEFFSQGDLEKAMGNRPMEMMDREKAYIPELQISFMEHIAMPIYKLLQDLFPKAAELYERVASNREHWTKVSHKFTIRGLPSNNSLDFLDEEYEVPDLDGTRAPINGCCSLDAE
Procedure, shortened: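 Membrane fraction of baculovirus/SF21-expressed PDE2A was incubated 30 min at 37° C in Tris-HCl/MgCl2 pH 7.4 with 0.5 μM [3H]-cAMP and 1000 nM cGMP as activator. Product was detected by SPA scintillation. IC50 used a Hill-plot 2-parameter model.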

| Structure (SMILES) | melting point | IC50 [1] | IC50 [2] |
| --- | --- | --- | --- |
| COc1ccccc1-c1nc(C)c2nnc3ccc(Cl)cc3n12 [Example 39, 8-chloro-1-(2-methoxyphenyl)-3-methylbenzo[e]imidazo[5,1-c][1,2,4]triazine] | 179 to 182 °C | 115 nM |  |
| Cc1nc(-c2cc(OC(C)C)ccc2F)n2c1nnc1ccc(F)cc12 [Example 20, 8-fluoro-1-(2-fluoro-5-isopropoxyphenyl)-3-methylbenzo[e]imidazo[5,1-c][1,2,4]triazine] | 148 to 150.5 °C | 2290 nM | 473 nM |
| Cc1nc(-c2cc(OC(C)C)ccc2F)n2c1nnc1cc(F)ccc12 [Example 31, 7-fluoro-1-(2-fluoro-5-isopropoxyphenyl)-3-methylbenzo[e]imidazo[5,1-c][1,2,4]triazine] | 133 to 136 °C | 5340 nM | 551 nM |
| Cc1nc(-c2cc(C(F)(F)F)ccc2F)n2c1nnc1ccc(-c3cc(C(F)(F)F)ccc3F)cc12 [Example 176, 1,8-Bis-(2-fluoro-5-trifluoromethyl-phenyl)-3-methyl-imidazo[5,1-c][1,2,4]benzotriazine] | 155 to 158 °C | 117 nM | 137 nM |
| Cc1nc(-c2ccccc2Cl)n2c1nnc1ccc(N3CCN(C)CC3)cc12 [Example 186, 1-(2-Chloro-phenyl)-3-methyl-8-(4-methyl-piperazin-1-yl)-imidazo[5,1-c][1,2,4]benzotriazine] | 230 °C | 9.02 nM | 7.49 nM |
| CCCc1nc(C)c2nnc3cc(OC)ccc3n12 [Example 2, 7-methoxy-3-methyl-1-propyl-imidazo[5,1-c][1,2,4]benzotriazine] | 159 to 162 °C | 401 nM | 546 nM |
| CCCCOc1ccc(F)c(-c2nc(C)c3nnc4cc(F)ccc4n23)c1 | 91 to 94 °C |  |  |
| CCOc1ccc(F)c(-c2ccc3nnc4c(C)nc(-c5cc(OCC)ccc5F)n4c3c2)c1 | 152 to 155 °C |  |  |
| COc1cc2nnc3c(C)nc(-c4ccccc4C)n3c2cc1OC [Example 49, 7,8-dimethoxy-3-methyl-1-o-tolylbenzo[e]imidazo[5,1-c][1,2,4]triazine] | 219 to 221 °C |  |  |
| Cc1nc(-c2cc(OC(C)C)ccc2F)n2c1nnc1ccc(-c3cc(OC(C)C)ccc3F)cc12 | 160.5 to 162 °C |  |  |
| COc1cc(OC)c2nnc3c(C)nc(-c4c(C)n[nH]c4C)n3c2c1 [Example 51, 1-(3,5-dimethyl-1H-pyrazol-4-yl)-6,8-dimethoxy-3-methylimidazo[5,1-c][1,2,4]benzotriazine] |  | 0.7 nM | 210 nM |
| COc1cc(F)c2nnc3c(C)nc(-c4ccc(C)cc4Cl)n3c2c1 [Example 71, 1-(2-chloro-4-methylphenyl)-6-fluoro-8-methoxy-3-methylimidazo[5,1-c][1,2,4]benzotriazine] |  | 11.4 nM | 5.53 nM |
| COc1cc(F)cc2c1nnc1c(C)nc(-c3c(C)nn(C)c3C)n12 [Example 116, 8-fluoro-6-methoxy-3-methyl-1-(1,3,5-trimethyl-1H-pyrazol-4-yl)imidazo[5,1-c][1,2,4]benzotriazine] |  | 13.1 nM | 1500 nM |
| COc1cc(N2CCOCC2)cc2c1nnc1c(C)nc(-c3ccccc3C)n12 [Example 66, 6-methoxy-3-methyl-1-(2-methylphenyl)-8-morpholin-4-ylimidazo[1,5-c][1,2,4]benzotriazine] |  | 1.53 nM | 110 nM |

More lines, now with the values ahead:

| melting point | IC50 [1] | IC50 [2] | Structure (SMILES) |
| --- | --- | --- | --- |
| 189 to 192 °C | 86 nM | 32.6 nM | Cc1nc(-c2ccccc2Cl)n2c1nnc1ccc(F)cc12 [Example 13, 1-(2-chlorophenyl)-8-fluoro-3-methylbenzo[e]imidazo[5,1-c][1,2,4]triazine] |
| 217 to 220 °C | > 5000 nM | > 1000 nM | Cc1nc(-c2ccnn2C)n2c1nnc1ccc(F)cc12 [Example 15, 8-fluoro-3-methyl-1-(1-methyl-1H-pyrazol-5-yl)benzo[e]imidazo[5,1-c][1,2,4]triazine] |
| 176 to 179 °C | > 1000 nM | 912 nM | Cc1nc(-c2cc(C(F)(F)F)ccc2F)n2c1nnc1ccc(F)cc12 [Example 21, 8-fluoro-1-(2-fluoro-5-(trifluoromethyl)phenyl)-3-methylbenzo[e]imidazo[5,1-c][1,2,4]triazine] |
| 157 to 159 °C |  |  | Cc1nc(-c2ccccc2Cl)n2c1nnc1cc(F)c(F)cc12 [Example 58, 1-(2-chlorophenyl)-7,8-difluoro-3-methylbenzo[e]imidazo[5,1-c][1,2,4]triazine] |
| 165 to 168 °C | 23.7 nM | 3.31 nM | COc1ccc2nnc3c(C)nc(-c4cc(Cl)ccc4Cl)n3c2c1 [Example 5, 1-(2,5-dichlorophenyl)-8-methoxy-3-methyl-imidazo[5,1-c][1,2,4]benzotriazine] |
| 190 to 193 °C |  |  | Cc1nc(-c2cc(Cl)ccc2Cl)n2c1nnc1ccc(-c3cc(Cl)ccc3Cl)cc12 |
| 175 °C |  |  | COc1cc2nnc3c(C)nc(-c4cc(Cl)ccc4Cl)n3c2cc1OC [Example 55, 1-(2,5-dichlorophenyl)-7,8-dimethoxy-3-methylbenzo[e]imidazo[5,1-c][1,2,4]triazine] |
| 119 to 122 °C |  |  | CCCOc1ccc(F)c(-c2nc(C)c3nnc4cc(F)ccc4n23)c1 |
| 123 to 125.5 °C |  |  | Cc1nc(CC(C)C)n2c1nnc1cc(F)c(F)cc12 [Example 59, 7,8-difluoro-1-isobutyl-3-methylbenzo[e]imidazo[5,1-c][1,2,4]triazine] |
| 247 to 249 °C |  |  | COc1cc2nnc3c(C)nc(-c4cc(C)ccc4Cl)n3c2cc1OC [Example 56, 1-(2-chloro-5-methylphenyl)-7,8-dimethoxy-3-methylbenzo[e]imidazo[5,1-c][1,2,4]triazine] |
| 200 °C |  |  | COc1cc2nnc3c(C)nc(Br)n3c2cc1OC [Example 54, 1-bromo-7,8-dimethoxy-3-methylbenzo[e]imidazo[5,1-c][1,2,4]triazine] |
| 196 to 199 °C |  |  | COc1cc2nnc3c(C)nc(CC(C)C)n3c2cc1OC [Example 53, 1-isobutyl-7,8-dimethoxy-3-methylbenzo[e]imidazo[5,1-c][1,2,4]triazine] |
|  | 55.2 nM | 37.3 nM | COc1cc(F)c2nnc3c(C)nc(-c4c(C)nn(C)c4C)n3c2c1 [Example 85, 6-fluoro-8-methoxy-3-methyl-1-(1,3,5-trimethyl-1H-pyrazol-4-yl)imidazo[5,1-c][1,2,4]benzotriazine] |
|  | 523 nM | 469 nM | COc1cc(F)c2nnc3c(C)nc(-c4cnc(F)c(C)c4)n3c2c1 [Example 92, 6-fluoro-1-(6-fluoro-5-methylpyridin-3-yl)-8-methoxy-3-methylimidazo[5,1-c][1,2,4]benzotriazine] |
| 147 to 150 °C |  |  | COc1cc2nnc3c(C)nc(-c4ccccc4C(F)(F)F)n3c2cc1OC [Example 57, 7,8-dimethoxy-3-methyl-1-(2-(trifluoromethyl)phenyl)benzo[e]imidazo[5,1-c][1,2,4]triazine] |
| 269 to 272 °C |  |  | COc1cc2nnc3c(C)nc(-c4ccccc4Cl)n3c2cc1OC [Example 46, 1-(2-chlorophenyl)-7,8-dimethoxy-3-methylbenzo[e]imidazo[5,1-c][1,2,4]triazine] |
